Data taken from US4610981A, “N-[(1H-imidazol-1-yl) and (1H-1,2,4-triazol-1-yl)-alkyl]benzenesulfonamides and thromboxane synthetase/antihypertensive compositions” (priority 1985, dated 1986).
Structures can show the parent of a compound that is named as a salt. Where two headings read alike, the source gives them in different places.

Tests used:
[1] = Hypotensive activity in spontaneously hypertensive rats, mean arterial blood pressure (Chan and Poorvin); assay type: in vivo, spontaneously hypertensive rats of the Okamoto strain; settings: oral gavage, 100 mg/kg or less, two doses 24 hours apart, measured 28 hours after initial dose; average MABP of rats used 160±1.5 mm Hg
Method: The novel compounds of the present invention also are active antihypertensive agents and were tested for hypotensive activity by the method of P. S. Chan and D. Poorvin, Clinical and Experimental Hypertension, 1(6), 817-830 (1979). Male, 16 week old, spontaneously hypertensive rats of the Okamoto strain, from Taconic Farms, Germantown, N.Y., having an average mean arterial blood pressure of 160±1.5 mm of mercury are used in the test. One to three rats are used per test compound. A rat is dosed by gavage with a test compound, suspended in 2% pre-boiled starch at a concentration of 50 mg/ml, at a dose of 100 mg/kg of body weight or less, with 0.9% sodium chloride loading at a dose of 25 ml/kg of body weight. A second identical dose of the test compound, without sodium chloride loading, is given 24 hours later. At 28 hours after the initial dose the mean arterial blood pressure is measured by the method of Chan and Poorvin, vide supra. The procedure is repeated in a second and third rat when necessary.

thromboxane synthetase = molecular target: T1, thromboxane synthetase (Rattus norvegicus, UniProt P49430); assay: Inhibition of thromboxane (TXA2) formation in SHR platelets, TXB2 measured by radioimmunoassay; assay type: cell-based, Okamoto-Aoki spontaneously hypertensive rats (SHR); settings: read-out: % Inhibition (of TXB2 formation)
T1 construct: The platelets were isolated by centrifuging the PRP for 10 minutes; endogenous in cells; host or cells: washed platelets from arterial blood of Okamoto-Aoki spontaneously hypertensive rats (animals from Taconic Farms)
T1 sequence (P49430 1-533): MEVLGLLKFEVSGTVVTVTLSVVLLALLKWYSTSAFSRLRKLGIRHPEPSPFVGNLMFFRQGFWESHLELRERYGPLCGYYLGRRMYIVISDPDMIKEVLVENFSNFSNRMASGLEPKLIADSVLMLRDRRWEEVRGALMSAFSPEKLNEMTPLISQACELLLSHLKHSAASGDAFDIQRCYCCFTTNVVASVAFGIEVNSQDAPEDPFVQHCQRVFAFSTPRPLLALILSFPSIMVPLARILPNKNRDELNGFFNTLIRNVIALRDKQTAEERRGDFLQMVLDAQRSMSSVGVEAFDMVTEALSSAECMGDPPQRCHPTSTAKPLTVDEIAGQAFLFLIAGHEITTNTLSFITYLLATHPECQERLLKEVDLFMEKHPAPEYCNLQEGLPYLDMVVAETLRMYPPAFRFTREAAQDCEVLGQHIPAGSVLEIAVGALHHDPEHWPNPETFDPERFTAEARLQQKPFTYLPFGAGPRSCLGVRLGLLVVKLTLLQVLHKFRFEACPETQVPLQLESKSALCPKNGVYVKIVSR
Method: The inhibition of thromboxane (TXA2) formation was studied by determining the concentration of thromboxane B2 (TXB2), the stable hydrolysis product of TXA2. […] The blood was diluted with 3 ml cold saline and centrifuged at room temperature for 15 minutes at 460×g. The platelet rich plasma (PRP) was separated. The platelets were isolated by centrifuging the PRP for 10 minutes at 1060×g and were washed in 4 ml cold oxygenated Krebs phosphate buffer, pH 7.4. The chilled platelets recovered from centrifuging at 800×g for 10 minutes were resuspended in oxygenated Krebs phosphate buffer and diluted to contain 4.5-6.0×10^4 platelets/μl. Assay samples, prepared on ice, contained 200 μl platelet suspension, 50 μl saline, and 50 μl vehicle or drug under study. The samples were incubated for 10 minutes at 37° C. in a metabolic shaker. The reaction was terminated by immersing the tubes in an ice bath and adding 50 μl of 0.5M citric acid. The samples were centrifuged for 10 minutes in a refrigerated centrifuge and the supernatants thus obtained were decanted and stored at -20° C.

[2] = canines; J. Cardiovascular Pharmacology, 4, 129 (1982); cited from earlier work
[3] = guinea pigs; literature; cited from earlier work
[4] = rabbits; literature; cited from earlier work
[5] = dose 10^-4 M, SHR washed platelets, 10 minutes at 37° C.

Compound | MABP in mm Hg [1] [mm Hg] | inhibition at 100 µM (thromboxane synthetase; [5]) [%] | further results
O=S(=O)(NCCn1ccnc1)c1ccc(Br)cc1 [4-Bromo-N-[2-(1H-imidazol-1-yl)ethyl]benzenesulfonamide] | 125 | – | –
O=S(=O)(NCCCn1ccnc1)c1ccc(Br)cc1 [4-Bromo-N-[3-(1H-imidazol-1-yl)propyl]benzenesulfonamide] | 126 | – | inhibition at 100 µM (thromboxane synthetase): 100%
O=S(=O)(NCCCCn1ccnc1)c1ccc(Br)cc1 [4-Bromo-N-[4-(1H-imidazol-1-yl)butyl]benzenesulfonamide] | – | 91 | –
O=S(=O)(NCCc1cccnc1)c1ccc(Cl)cc1 [4-Chloro-N-[2-(3-pyridyl)ethyl]benzenesulfonamide] | 109 | 90 | –
O=S(=O)(NCCCn1cncn1)c1ccc(Cl)cc1 [4-Chloro-N-[3-(1H-1,2,4-triazol-1-yl)propyl]benzenesulfonamide] | 127 | – | –
O=S(=O)(NCCCn1ccnc1)c1ccc(Cl)cc1 [4-Chloro-N-[3-(1H-imidazol-1-yl)propyl]benzenesulfonamide] | 120 | 99 | –
O=S(=O)(NCCCCn1ccnc1)c1ccc(Cl)cc1 [4-Chloro-N-[4-(1H-imidazol-1-yl)butyl]benzenesulfonamide] | – | 94 | –
O=S(=O)(NCCCCCn1ccnc1)c1ccc(Cl)cc1 [4-Chloro-N-[5-(1H-imidazol-1-yl)pentyl]benzenesulfonamide hydrochloride] | – | 97 | –
O=S(=O)(NCCCCCn1ccnc1)c1ccc(Cl)cc1 [4-Chloro-N-[5-(1H-imidazol-1-yl)pentyl]benzenesulfonamide] | 119 | – | –
O=S(=O)(NCCCCCCCCn1ccnc1)c1ccc(Cl)cc1 [4-Chloro-N-[8-(1H-imidazol-1-yl)octyl]benzenesulfonamide] | 132 | 93 | –
O=S(=O)(NCCCn1cncn1)c1ccccc1 [N-[3-(1H-1,2,4-Triazol-1-yl)propyl]benzenesulfonamide] | – | 67 | –
COc1ccc(S(=O)(=O)NCCCn2ccnc2)cc1 [N-[3-(1H-Imidazol-1-yl)propyl]-4-methoxybenzenesulfonamide] | – | 100 | –
O=S(=O)(NCCCCn1ccnc1)c1ccccc1 [N-[4-(1H-Imidazol-1-yl)butyl]benzenesulfonamide] | – | 93 | –
COc1ccc(S(=O)(=O)NCCCCn2ccnc2)cc1 [N-[4-(1H-imidazol-1-yl)butyl]-4-methoxybenzenesulfonamide] | 134 | 97 | –
CC(=O)Nc1ccc(S(=O)(=O)NCCCn2ccnc2)cc1 [N-[4-[[[3-(1H-Imidazol-1-yl)propyl]amino]sulfonyl]phenyl]acetamide] | 131 | 73 | –
CC(=O)Nc1ccc(S(=O)(=O)NCCCCn2ccnc2)cc1 [N-[4-[[[4-(1H-imidazol-1-yl)butyl]amino]sulfonyl]phenyl]acetamide] | 116 | 100 | –
CCCCC[C@H](O)/C=C/[C@@H]1[C@H]2C/C(=C/CCCC(=O)O)O[C@H]2C[C@H]1O [PGI2] | – | – | effect on ischemic myocardium (in words) [2]: beneficial effects
CCCCCC(O)/C=C/C1OC2CC(O2)C1C/C=C\CCCC(=O)O (centres unmarked) [TXA2] | – | – | effect of injection into coronary arteries (in words) [3]: causes myocardial ischemia and subendocardial necrosis; effect of injection into coronary arteries (in words) [4]: causes myocardial ischemia and subendocardial necrosis
